Columns and labels:
p38-α = molecular target: T1, p38-α (Homo sapiens, UniProt Q16539); test: p38 kinase assay, p38-α with peptide substrate (Caliper LabChip); format: biochemical; settings: read-out: IC50 p38a*peptide
T1 construct: purchased Millipore
Protocol: Alternatively, p38 kinase assays were performed in a reaction volume of 70 µL in a 384-well plate, at 30° for […] under the following conditions: 50 mM Hepes, pH 7.4, 10 mM MgCl2, 1 mg/ml FA Free BSA, 1 mM DTT, 10 μM ATP, 10 μM p38 peptide [Caliper Life Sciences FL-Peptide 8 (5-FAM-IPTSPITTTYFFEKKK-COOH)] and 5.7 nM p38-α (Millipore), or 14.3 nM unactivated MAPKAP kinase-2, 0.18 nM p38-α (Millipore) and 2 uM RSK peptide [Caliper Life Sciences FL-Peptide 11 (5-FAM-KKLNRTLSVA-COOH)]. Serial dilutions of compounds were added to each reaction in 700 nL DMSO. 700 nL of DMSO was added to the control wells of the reaction plate as the no inhibitor control for each inhibitor titration. The reaction was terminated by the addition of 15 μL of a 100 mM EDTA. Product formation was analyzed using the Caliper LabChip 3000. The Separation buffer contained 100 mM HEPES pH 7.5, 0.015% Brij-35, 2.5% Coating Reagent #3 (Caliper Life Sciences) and 10 mM EDTA. Calculation of the substrate product ratios are performed using the HTS Well Analyzer software provided by Caliper Life Sciences and the percent inhibition at each compound concentration is determined.

hWB = test: IC50 hWB (TNF-α release assay); format: cell-based; settings: Homo sapiens

T1 sequence (Q16539 whole entry): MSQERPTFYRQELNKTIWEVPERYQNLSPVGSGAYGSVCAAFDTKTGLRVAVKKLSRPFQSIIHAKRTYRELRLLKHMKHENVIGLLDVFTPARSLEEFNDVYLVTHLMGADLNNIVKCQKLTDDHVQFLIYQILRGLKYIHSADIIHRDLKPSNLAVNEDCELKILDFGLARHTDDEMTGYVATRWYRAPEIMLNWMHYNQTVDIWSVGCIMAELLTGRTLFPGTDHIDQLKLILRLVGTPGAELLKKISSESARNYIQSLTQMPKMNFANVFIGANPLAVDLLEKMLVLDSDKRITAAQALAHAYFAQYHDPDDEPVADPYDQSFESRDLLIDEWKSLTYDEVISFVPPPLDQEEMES

`O=C(NCc1nnc(-c2cccnc2)s1)c1cc(C(=O)c2c(F)cc(F)cc2F)c[nH]1` [Example 13, N-[(5-pyridin-3-yl-1,3,4-thiadiazol-2-yl)methyl]-4-(2,4,6-trifluorobenzoyl)-1H-pyrrole-2-carboxamide] gave an IC50 (p38-α) of 0.04 µM and an IC50 (hWB) of 0.747 µM.

Work on `O=C(NCc1nnc(-c2cc(C(F)(F)F)n[nH]2)s1)c1cc(C(=O)c2c(F)cc(F)cc2F)c[nH]1` [Example 27, 4-(2,4,6-trifluorobenzoyl)-N-({5-[3-(trifluoromethyl)-1H-pyrazol-5-yl]-1,3,4-thiadiazol-2-yl}methyl)-1H-pyrrole-2-carboxamide] yielded an IC50 (p38-α) of 1.4 µM.

`Cc1nnc(CNC(=O)c2cc(C(=O)c3c(F)cc(F)cc3F)c[nH]2)s1` [Example 1, N-[(5-methyl-1,3,4-thiadiazol-2-yl)methyl]-4-(2,4,6-trifluorobenzoyl)-1-H-pyrrole-2-carboxamide] showed an IC50 (p38-α) of 0.167 µM and an IC50 (hWB) of 0.467 µM.

`O=C(NCc1nnc(C2CC2)s1)c1cc(C(=O)c2c(F)cc(F)cc2F)c[nH]1` [Example 4, N-[(5-cyclopropyl-1,3,4-thiadiazol-2-yl)methyl]-4-(2,4,6-trifluorobenzoyl)-1H-pyrrole-2-carboxamide] showed an IC50 (p38-α) of 0.073 µM and an IC50 (hWB) of 0.33 µM.

In the case of `CC(C)Cc1cc(-c2nnc(CNC(=O)c3cc(C(=O)c4c(F)cc(F)cc4F)c[nH]3)s2)[nH]n1` [Example 26, N-{[5-(3-isobutyl-1H-pyrazol-5-yl)-1,3,4-thiadiazol-2-yl]methyl}-4-(2,4,6-trifluorobenzoyl)-1H-pyrrole-2-carboxamide], the IC50 (p38-α) is reported as 0.024 µM and the IC50 (hWB) is reported as 0.163 µM.

For `O=C(NCc1nnc(-c2ccccn2)s1)c1cc(Cc2c(F)cc(F)cc2F)c[nH]1` [Example 44, N-[(5-pyridin-2-yl-1,3,4-thiadiazol-2-yl)methyl]-4-(2,4,6-trifluorobenzyl)-1H-pyrrole-2-carboxamide], the IC50 (p38-α) was 0.555 µM.

`CC(C)(C)c1nnc(CNC(=O)c2cc(C(=O)c3c(F)cc(F)cc3F)c[nH]2)s1` [Example 5, N-[(5-tert-butyl-1,3,4-thiadiazol-2-yl)methyl]-4-(2,4,6-trifluorobenzoyl)-1H-pyrrole-2-carboxamide] gave an IC50 (p38-α) of 0.608 µM.

Work on `COc1cc(-c2nnc(CNC(=O)c3cc(C(=O)c4c(F)cc(F)cc4F)c[nH]3)s2)ccn1` [Example 19, N-{[5-(2-methoxypyridin-4-yl)-1,3,4-thiadiazol-2-yl]methyl}-4-(2,4,6-trifluorobenzoyl)-1H-pyrrole-2-carboxamide] yielded an IC50 (p38-α) of 0.085 µM.

`CCCCc1nnc(CNC(=O)c2cc(C(=O)c3c(F)cc(F)cc3F)c[nH]2)s1` [Example 2, N-[(5-butyl-1,3,4-thiadiazol-2-yl)-methyl]-4-(2,4,6-trifluorobenzoyl)-1-H-pyrrole-2-carboxamide] gave an IC50 (p38-α) of 0.441 µM and an IC50 (hWB) of 4.22 µM.

In the case of `O=C(NCc1nnc(-c2n[nH]c3ccccc23)s1)c1cc(C(=O)c2c(F)cc(F)cc2F)c[nH]1` [Example 28, N-{[5-(1H-indazol-3-yl)-1,3,4-thiadiazol-2-yl]methyl}-4-(2,4,6-trifluorobenzoyl)-1H-pyrrole-2-carboxamide], the IC50 (p38-α) is reported as 0.069 µM and the IC50 (hWB) is reported as 0.36 µM.

`O=C(NCc1nnc(-c2cccc(=O)[nH]2)s1)c1cc(C(=O)c2c(F)cc(F)cc2F)c[nH]1` [Example 37, N-{[5-(6-oxo-1,6-dihydropyridin-2-yl)-1,3,4-thiadiazol-2-yl]methyl}-4-(2,4,6-trifluorobenzoyl)-1H-pyrrole-2-carboxamide] was tested, and the IC50 (p38-α) was 0.173 µM.

`O=C(NCc1nnc(-c2ccc[nH]c2=O)s1)c1cc(Cc2c(F)cc(F)cc2F)c[nH]1` [Example 43, N-{[5-(2-oxo-1,2-dihydropyridin-3-yl)-1,3,4-thiadiazol-2-yl]methyl}-4-(2,4,6-trifluorobenzyl)-1H-pyrrole-2-carboxamide] gave an IC50 (p38-α) of 0.259 µM and an IC50 (hWB) of 1.88 µM.

In the case of `O=C(NCc1nnc(-c2ccc(F)cc2)s1)c1cc(C(=O)c2c(F)cc(F)cc2F)c[nH]1` [Example 8, N-{[5-(4-fluorophenyl)-1,3,4-thiadiazol-2-yl]methyl}-4-(2,4,6-trifluorobenzoyl)-1H-pyrrole-2-carboxamide], the IC50 (p38-α) is reported as 0.05 µM and the IC50 (hWB) is reported as 1 µM.

With `O=C(NCc1nnc(-c2cc[nH]c(=O)c2)s1)c1cc(C(=O)c2c(F)cc(F)cc2F)c[nH]1` [Example 38, N-{[5-(2-oxo-1,2-dihydropyridin-4-yl)-1,3,4-thiadiazol-2-yl]methyl}-4-(2,4,6-trifluorobenzoyl)-1H-pyrrole-2-carboxamide] the IC50 (p38-α) was 0.0269 µM.

In the case of `O=C(NCc1nnc(-c2ccn[nH]2)s1)c1cc(C(=O)c2c(F)cc(F)cc2F)c[nH]1` [Example 32, N-{[5-(1H-pyrazol-5-yl)-1,3,4-thiadiazol-2-yl]methyl}-4-(2,4,6-trifluorobenzoyl)-1H-pyrrole-2-carboxamide], the IC50 (p38-α) is reported as 0.043 µM and the IC50 (hWB) is reported as 0.084 µM.

`CCC(C)c1nnc(CNC(=O)c2cc(C(=O)c3c(F)cc(F)cc3F)c[nH]2)s1` (stereo not shown) [Example 24, N-[(5-sec-butyl-1,3,4-thiadiazol-2-yl)methyl]-4-(2,4,6-trifluorobenzoyl)-1H-pyrrole-2-carboxamide] was tested, and the IC50 (p38-α) was 1.02 µM.

`COc1ccc(-c2nnc(CNC(=O)c3cc(C(=O)c4c(F)cc(F)cc4F)c[nH]3)s2)cc1` [Example 10, N-{[5-(4-methoxyphenyl)-1,3,4-thiadiazol-2-yl]methyl}-4-(2,4,6-trifluorobenzoyl)-1H-pyrrole-2-carboxamide] showed an IC50 (p38-α) of 0.031 µM.

`O=C(NCc1nnc(-c2ccc(=O)[nH]c2)s1)c1cc(C(=O)c2c(F)cc(F)cc2F)c[nH]1` [Example 36, N-{[5-(6-oxo-1,6-dihydropyridin-3-yl)-1,3,4-thiadiazol-2-yl]methyl}-4-(2,4,6-trifluorobenzoyl)-1H-pyrrole-2-carboxamide] was tested, and the IC50 (p38-α) was 0.0704 µM.

Compound `CC1(c2nnc(CNC(=O)c3cc(C(=O)c4c(F)cc(F)cc4F)c[nH]3)s2)CC1` [Example 23, N-{[5-(1-methylcyclopropyl)-1,3,4-thiadiazol-2-yl]methyl}-4-(2,4,6-trifluorobenzoyl)-1H-pyrrole-2-carboxamide] has an IC50 (p38-α) of 0.826 µM.

`Cc1nnc(CNC(=O)c2cc(C(=O)c3c(F)cccc3F)c[nH]2)s1` [Example 40, 4-(2,6-difluorobenzoyl)-N-[(5-methyl-1,3,4-thiadiazol-2-yl)methyl]-1H-pyrrole-2-carboxamide] showed an IC50 (p38-α) of 0.15 µM.

Compound `O=C(NCc1nnc(C2CCCC2)s1)c1cc(C(=O)c2c(F)cc(F)cc2F)c[nH]1` [Example 6, N-[(5-cyclopentyl-1,3,4-thiadiazol-2-yl)methyl]-4-(2,4,6-trifluorobenzoyl)-1H-pyrrole-2-carboxamide] has an IC50 (p38-α) of 1.51 µM and an IC50 (hWB) of 2.87 µM.

`O=C(NCc1nnc(-c2csnn2)s1)c1cc(C(=O)c2c(F)cc(F)cc2F)c[nH]1` [Example 30, N-{[5-(1,2,3-thiadiazol-4-yl)-1,3,4-thiadiazol-2-yl]methyl}-4-(2,4,6-trifluorobenzoyl)-1H-pyrrole-2-carboxamide] gave an IC50 (p38-α) of 0.634 µM.

`CC(C)c1nnc(CNC(=O)c2cc(C(=O)c3c(F)cc(F)cc3F)c[nH]2)s1` [Example 3, N-[(5-isopropyl-1,3,4-thiadiazol-2-yl)methyl]-4-(2,4,6-trifluorobenzoyl)-1-H-pyrrole-2-carboxamide] was tested, and the IC50 (p38-α) was 0.479 µM.

For `Cc1cc(-c2nnc(CNC(=O)c3cc(C(=O)c4c(F)cc(F)cc4F)c[nH]3)s2)nn1C` [Example 33, N-{[5-(1,5-dimethyl-1H-pyrazol-3-yl)-1,3,4-thiadiazol-2-yl]methyl}-4-(2,4,6-trifluorobenzoyl)-1H-pyrrole-2-carboxamide], the IC50 (p38-α) was 0.0351 µM.

Compound `Cc1nnc(CNC(=O)c2cc(C(=O)c3ccc(F)cc3F)c[nH]2)s1` [Example 39, 4-(2,4-difluorobenzoyl)-N-[(5-methyl-1,3,4-thiadiazol-2-yl)methyl]-1H-pyrrole-2-carboxamide] has an IC50 (p38-α) of 0.222 µM.

With `O=C(NCc1nnc(-c2[nH]nc3c2CCC3)s1)c1cc(C(=O)c2c(F)cc(F)cc2F)c[nH]1` [Example 31, N-{[5-(2,4,5,6-tetrahydrocyclopenta[c]pyrazol-3-yl)-1,3,4-thiadiazol-2-yl]methyl}-4-(2,4,6-trifluorobenzoyl)-1H-pyrrole-2-carboxamide] the IC50 (p38-α) was 0.036 µM.

In the case of `O=C(NCc1nnc(C2CCC2)s1)c1cc(C(=O)c2c(F)cc(F)cc2F)c[nH]1` [Example 22, N-[(5-cyclobutyl-1,3,4-thiadiazol-2-yl)methyl]-4-(2,4,6-trifluorobenzoyl)-1H-pyrrole-2-carboxamide], the IC50 (p38-α) is reported as 0.489 µM.

In the case of `O=C(NCc1nnc(-c2cn[nH]n2)s1)c1cc(C(=O)c2c(F)cc(F)cc2F)c[nH]1` [Example 34, N-{[5-(2H-1,2,3-triazol-4-yl)-1,3,4-thiadiazol-2-yl]methyl}-4-(2,4,6-trifluorobenzoyl)-1,1-pyrrole-2-carboxamide], the IC50 (p38-α) is reported as 0.18 µM.

`CCOc1ncccc1-c1nnc(CNC(=O)c2cc(C(=O)c3c(F)cc(F)cc3F)c[nH]2)s1` [Example 16, N-{[5-(2-ethoxypyridin-3-yl)-1,3,4-thiadiazol-2-yl]methyl}-4-(2,4,6-trifluorobenzoyl)-1H-pyrrole-2-carboxamide] gave an IC50 (p38-α) of 0.135 µM.

With `COc1cccc(-c2nnc(CNC(=O)c3cc(C(=O)c4c(F)cc(F)cc4F)c[nH]3)s2)n1` [Example 18, N-{[5-(6-methoxypyridin-2-yl)-1,3,4-thiadiazol-2-yl]methyl}-4-(2,4,6-trifluorobenzoyl)-1H-pyrrole-2-carboxamide] the IC50 (p38-α) was 0.094 µM.
